Laboratory results: patent US11066396B2 (priority 2016, dated 2021)

Legend:
[1] = target: HDAC1 (Homo sapiens (Human), UniProt Q13547); details: read-out: HDAC1 IC50
[2] = target: HDAC5 (Homo sapiens (Human), UniProt Q9UQL6); details: read-out: HDAC5 IC50
[3] = target: HDAC8 (Homo sapiens (Human), UniProt Q9BY41); details: read-out: HDAC8 IC50
Chain of HDAC8 (Q9BY41 whole entry): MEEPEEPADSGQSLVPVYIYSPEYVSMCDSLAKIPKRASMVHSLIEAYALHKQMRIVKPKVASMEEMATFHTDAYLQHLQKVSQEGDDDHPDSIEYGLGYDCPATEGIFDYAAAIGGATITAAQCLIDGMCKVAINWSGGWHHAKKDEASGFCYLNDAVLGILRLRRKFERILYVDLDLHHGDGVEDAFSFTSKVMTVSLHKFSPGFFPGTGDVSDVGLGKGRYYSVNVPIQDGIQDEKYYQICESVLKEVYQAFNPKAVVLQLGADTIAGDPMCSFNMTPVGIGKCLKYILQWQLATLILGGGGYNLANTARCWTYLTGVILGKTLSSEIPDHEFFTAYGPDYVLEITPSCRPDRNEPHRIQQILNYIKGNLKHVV

Chain of HDAC1 (Q13547 whole entry): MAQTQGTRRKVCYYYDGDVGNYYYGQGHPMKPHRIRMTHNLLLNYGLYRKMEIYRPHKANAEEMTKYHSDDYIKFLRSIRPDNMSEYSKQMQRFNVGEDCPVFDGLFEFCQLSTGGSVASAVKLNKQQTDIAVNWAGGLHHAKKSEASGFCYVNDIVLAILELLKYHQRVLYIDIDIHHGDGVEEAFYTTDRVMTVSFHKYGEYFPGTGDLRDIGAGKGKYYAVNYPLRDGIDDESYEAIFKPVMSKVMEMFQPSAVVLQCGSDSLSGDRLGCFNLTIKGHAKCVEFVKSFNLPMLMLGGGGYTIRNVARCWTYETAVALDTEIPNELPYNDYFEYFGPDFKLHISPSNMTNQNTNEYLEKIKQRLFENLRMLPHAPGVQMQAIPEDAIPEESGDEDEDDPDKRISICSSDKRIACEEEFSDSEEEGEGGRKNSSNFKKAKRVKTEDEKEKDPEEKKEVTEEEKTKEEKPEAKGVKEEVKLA
Chain of HDAC5 (Q9UQL6 656-1122): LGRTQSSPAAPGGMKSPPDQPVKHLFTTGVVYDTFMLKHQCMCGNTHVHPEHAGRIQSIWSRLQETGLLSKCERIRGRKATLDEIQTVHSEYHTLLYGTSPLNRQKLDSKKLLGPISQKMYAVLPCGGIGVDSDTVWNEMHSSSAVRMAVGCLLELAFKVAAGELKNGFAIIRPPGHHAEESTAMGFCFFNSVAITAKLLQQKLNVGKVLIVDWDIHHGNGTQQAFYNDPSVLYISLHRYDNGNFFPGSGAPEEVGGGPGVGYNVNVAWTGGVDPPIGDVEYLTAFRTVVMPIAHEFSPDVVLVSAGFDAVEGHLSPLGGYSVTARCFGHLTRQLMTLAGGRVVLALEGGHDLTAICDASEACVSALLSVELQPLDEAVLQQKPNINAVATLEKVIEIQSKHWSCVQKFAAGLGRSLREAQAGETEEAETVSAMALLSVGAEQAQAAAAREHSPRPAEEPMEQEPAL

| SMILES | IC50 [1] [µM] | IC50 [2] [µM] | IC50 [3] [µM] |
| --- | --- | --- | --- |
| Cc1ccc(NCc2ccc(-c3noc(C(F)(F)F)n3)c(F)c2)cn1 [Example 253, N-({3-fluoro-4-[5-(trifluoromethyl)-1,2,4-oxadiazol-3-yl]phenyl}methyl)-6-methylpyridin-3-amine] | 1.7 | 0.064 | 3.9 |
| O=C1COC[C@@H](c2ccccc2)N1c1ccc(-c2noc(C(F)(F)F)n2)cn1 [Example 126, (R)-5-phenyl-4-(5-(5-(trifluoromethyl)-1,2,4-oxadiazol-3-yl)pyridin-2-yl)morpholin-3-one] | 1.4 | 0.19 | 5 |
| Cc1nccc(OCc2ccc(-c3noc(C(F)(F)F)n3)c(F)c2)n1 [Example 241, 4-({3-fluoro-4-[5-(trifluoromethyl)-1,2,4-oxadiazol-3-yl]phenyl}methoxy)-2-methylpyrimidine] | 3.2 | 0.048 | 3 |
| CC(Oc1nccc(-c2noc(C(F)(F)F)n2)c1Cl)c1cccnc1 (racemic) [Example 256, 3-chloro-2-[1-(pyridin-3-yl)ethoxy]-4-[5-(trifluoromethyl)-1,2,4-oxadiazol-3-yl]pyridine] | 3.3 | 0.2 | 2.3 |
| O=C(NC(Cc1ccc(-c2noc(C(F)(F)F)n2)cn1)c1cccc(C(F)(F)F)c1)C(F)(F)F (stereo not drawn) [Example 176, 2,2,2-Trifluoro-N-(2-(5-(5-(trifluoromethyl)-1,2,4-oxadiazol-3-yl)pyridin-2-yl)-1-(3-(trifluoromethyl)phenyl)ethyl)acetamide] | 1.3 | 0.32 | 45 |
| O=c1[nH]c2ccccc2n(Cc2ccc(-c3noc(C(F)(F)F)n3)cn2)c1=O [Example 469, 1-({5-[5-(trifluoromethyl)-1,2,4-oxadiazol-3-yl]pyridin-2-yl}methyl)-1,4-dihydroquinoxaline-2,3-dione] | 0.086 | 0.022 | 1.4 |
| CC1(C)CCCCN1C(=O)[C@@H]1CCC(=O)N1c1ccc(-c2noc(C(F)(F)F)n2)c(F)c1 [Example 343, (5S)-5-[(2,2-dimethylpiperidin-1-yl)carbonyl]-1-{3-fluoro-4-[5-(trifluoromethyl)-1,2,4-oxadiazol-3-yl]phenyl}pyrrolidin-2-one] | 24 | 3 | 25 |
| Cc1noc([C@@H]2CCC(=O)N2c2ccc(-c3noc(C(F)(F)F)n3)c(F)c2F)n1 [Example 12, (S)-1-(2,3-Difluoro-4-(5-(trifluoromethyl)-1,2,4-oxadiazol-3-yl)phenyl)-5-(3-methyl-1,2,4-oxadiazol-5-yl)pyrrolidin-2-one] | 2 | 0.011 | 6 |
| Cc1ccncc1COc1ccc(-c2noc(C(F)(F)F)n2)cn1 [Example 202, 2-[(4-methylpyridin-3-yl)methoxy]-5-[5-(trifluoromethyl)-1,2,4-oxadiazol-3-yl]pyridine] | 2.2 | 0.73 | 0.9 |
| O=C(NCc1ccc(-c2noc(C(F)(F)F)n2)cc1)C1CCCC1 [Example 191, N-(4-(5-(Trifluoromethyl)-1,2,4-oxadiazol-3-yl)benzyl)cyclopentanecarboxamide] | 2.2 | 0.94 | 2.9 |
| O=C(C(Cc1ccc(-c2noc(C(F)(F)F)n2)cn1)c1cccc(C(F)(F)F)c1)N1CC[S+]([O-])CC1 (racemic) [Example 199, 4-(3-{5-[5-(trifluoromethyl)-1,2,4-oxadiazol-3-yl]pyridin-2-yl}-2-[3-(trifluoromethyl)phenyl]propanoyl)-llambda~4~,4-thiazinan-1-one] | 4.1 | 2.1 | 9.9 |
| O=C(C1CCS(=O)(=O)CC1)N(Cc1ccc(-c2noc(C(F)(F)F)n2)cn1)c1ccccc1C(F)(F)F [Example 201, 1,1-dioxo-N-({5-[5-(trifluoromethyl)-1,2,4-oxadiazol-3-yl]pyridin-2-yl}methyl)-N-[2-(trifluoromethyl)phenyl]-llambda~6~-thiane-4-carboxamide] | 4 | 1.4 | 9.2 |
| COc1ccc(OCc2ccc(-c3noc(C(F)(F)F)n3)c(F)c2)nc1 [Example 243, 2-({3-fluoro-4-[5-(trifluoromethyl)-1,2,4-oxadiazol-3-yl]phenyl}methoxy)-5-methoxypyridine] | 1.5 | 0.05 | 1.6 |
| Fc1cc(COc2cc[nH]n2)ccc1-c1noc(C(F)(F)F)n1 [Example 232, 3-(2-fluoro-4-{[(1H-pyrazol-3-yl)oxy]methyl}phenyl)-5-(trifluoromethyl)-1,2,4-oxadiazole] | 3 | 0.067 | 1.3 |
| COc1ncccc1OCc1ccc(-c2noc(C(F)(F)F)n2)c(F)c1 [Example 246, 3-({3-fluoro-4-[5-(trifluoromethyl)-1,2,4-oxadiazol-3-yl]phenyl}methoxy)-2-methoxypyridine] | 2.4 | 0.12 | 45 |
| CC(C)C(=O)NC(Cc1ccc(-c2noc(C(F)(F)F)n2)cn1)c1cccc(C(F)(F)F)c1 (racemic) [Example 478, 2-methyl-N-(2-{5-[5-(trifluoromethyl)-1,2,4-oxadiazol-3-yl]pyridin-2-yl}-1-[3-(trifluoromethyl)phenyl]ethyl)propanamide] | 0.68 | 0.5 | 45 |
| COCC(=O)NC(Cc1ccc(-c2noc(C(F)(F)F)n2)cn1)c1cccc(C(F)(F)F)c1 (racemic) [Example 480, 2-methoxy-N-(2-{5-[5-(trifluoromethyl)-1,2,4-oxadiazol-3-yl]pyridin-2-yl}-1-[3-(trifluoromethyl)phenyl]ethyl)acetamide] | 0.67 | 0.62 | 5.3 |
| Fc1cc(COc2cnc3c(c2)COC3)ccc1-c1noc(C(F)(F)F)n1 [Example 245, 3-({3-fluoro-4-[5-(trifluoromethyl)-1,2,4-oxadiazol-3-yl]phenyl}methoxy)-5,7-dihydrofuro[3,4-b]pyridine] | 1.5 | 0.18 | 3.4 |
| Cn1cnc2cc(COc3nccc(-c4noc(C(F)(F)F)n4)c3Cl)ccc21 [Example 255, 5-[({3-chloro-4-[5-(trifluoromethyl)-1,2,4-oxadiazol-3-yl]pyridin-2-yl}oxy)methyl]-1-methyl-1H-benzimidazole] | 1.7 | 0.38 | 1.6 |
| Cc1noc([C@@H]2CCC(=O)N2c2ccc(-c3noc(C(F)(F)F)n3)cc2)n1 [Example 122, (S)-5-(3-methyl-1,2,4-oxadiazol-5-yl)-1-(4-(5-(trifluoromethyl)-1,2,4-oxadiazol-3-yl)phenyl)pyrrolidin-2-one] | 0.73 | 0.021 | 1.4 |
| COCc1cccc(CCOc2cc(-c3noc(C(F)(F)F)n3)ccn2)c1 [Example 476, 2-{2-[3-(methoxymethyl)phenyl]ethoxy}-4-[5-(trifluoromethyl)-1,2,4-oxadiazol-3-yl]pyridine] | 1.9 | 0.78 | 3 |
| CC(C)(C)OC(=O)[C@@H]1CCC(=O)N1c1ccc(-c2noc(C(F)(F)F)n2)c(F)c1F [Example 124, tert-butyl (S)-1-(2,3-difluoro-4-(5-(trifluoromethyl)-1,2,4-oxadiazol-3-yl)phenyl)-5-oxopyrrolidine-2-carboxylate] | 1.3 | 0.017 | 7.4 |
| O=C(CN1CCOCC1)NC(Cc1ccc(-c2noc(C(F)(F)F)n2)cn1)c1cccc(C(F)(F)F)c1 (racemic) [Example 485, 2-(morpholin-4-yl)-N-(2-{5-[5-(trifluoromethyl)-1,2,4-oxadiazol-3-yl]pyridin-2-yl}-1-[3-(trifluoromethyl)phenyl]ethyl)acetamide] | 1.1 | 1.1 | 11 |
| Fc1cc(COc2ccccc2)ccc1-c1noc(C(F)(F)F)n1 [Example 172, 3-(2-Fluoro-4-(phenoxymethyl)phenyl)-5-(trifluoromethyl)-1,2,4-oxadiazole] | 45 | 0.76 | 45 |
| Fc1cc(COc2[nH]nc3c2COCC3)ccc1-c1noc(C(F)(F)F)n1 [Example 249, 3-({3-fluoro-4-[5-(trifluoromethyl)-1,2,4-oxadiazol-3-yl]phenyl}methoxy)-2,4,6,7-tetrahydropyrano[4,3-c]pyrazole] | 3.1 | 0.074 | 2.3 |
| CC(C(=O)N(Cc1ccc(-c2noc(C(F)(F)F)n2)cn1)c1cccc(F)c1)c1ccn(C)n1 (racemic) [Example 58, N-(3-fluorophenyl)-2-(1-methyl-1H-pyrazol-3-yl)-N-((5-(5-(trifluoromethyl)-1,2,4-oxadiazol-3-yl)pyridin-2-yl)methyl)propanamide] | 0.22 | 0.73 | 1.7 |
| CCc1nnc([C@@H]2CCC(=O)N2c2cc(F)c(-c3noc(C(F)(F)F)n3)cc2F)o1 [Example 105, (S)-1-(2,5-difluoro-4-(5-(trifluoromethyl)-1,2,4-oxadiazol-3-yl)phenyl)-5-(5-ethyl-1,3,4-oxadiazol-2-yl)pyrrolidin-2-one] | 0.71 | 0.018 | 6.6 |
| Cc1cc(OCc2ccc(-c3noc(C(F)(F)F)n3)c(F)c2)cc(C)n1 [Example 237, 4-({3-fluoro-4-[5-(trifluoromethyl)-1,2,4-oxadiazol-3-yl]phenyl}methoxy)-2,6-dimethylpyridine] | 1.8 | 0.23 | 5.3 |
| CN(C(=O)[C@@H]1COCC(=O)N1c1ccc(-c2noc(C(F)(F)F)n2)c(F)c1)C(C)(C)C [Example 196, (3S)-N-tert-butyl-4-{3-fluoro-4-[5-(trifluoromethyl)-1,2,4-oxadiazol-3-yl]phenyl}-N-methyl-5-oxomorpholine-3-carboxamide] | 6.9 | 0.3 | 6.3 |
